The test system of data set [1] is Human NCI-H460 lung carcinoma tumor xenograft. The data set can be described thus: Xenograft model antitumor assay, NCI-H460. It is filed as in vivo, nude mice. To be noted: 40 mg/Kg/day; for inhibition of NCI-460 tumor growth: nude mice (FIG. 5A); for NCI-460 tumor growth: nude mice (FIGS. 3A to 3C). The procedure: (§1) For tumor cell inoculation in nude mice, U-87 MG or NCI-H460 cells were harvested by trypsinization using a trypsin/EDTA solution. Cells were washed two times with phosphate-buffered saline Ca^2+—Mg^2+ free (PBS-CMF) and centrifuged. The resulting pellet was resuspended in 1% methyl-cellulose in serum-free EMEM at a concentration of 2.5×10^6 cells per 100 μL. Specific pathogen-free, female Crl:CD-1®-nuBR nude mice were anesthetized by O2/isoflurane inhalation and tumors were established by subcutaneous injection of 100 μL from cell suspension into the right flank. Tumors were measured in O2/isoflurane anesthetized mice twice a week using a digital caliper and tumor volume was calculated as: π/6×length×width^2. When the first mouse from control group held a tumor reaching 1000 mm^3, tumors were photographed and mice from every group were sacrificed. Experiments were performed on 8 animals for each group. Recombinant sMTf treatment toxicity was evaluated by monitoring the body weight of control and treated mice, considering that a weight loss>20% results in a toxic effect.

Data set [2] concerns Human U87 glioblastoma tumor xenograft. The data set can be described thus: Xenograft model antitumor assay, U87. Format: in vivo, nude mice. To be noted: 40 mg/Kg/day; for inhibition of U87 tumor growth: nude mice (FIG. 5B); for U87 tumor growth: nude mice (FIGS. 4A and 4B). The procedure:
as §1

Data set [3] concerns in vivo neovascularisation induced by the growth factors FGF-2 and VEGF. As to the kind of experiment: Matrigel plug angiogenesis assay. To be noted: induced by FGF-2 and VEGF, nude mice, 7 days (FIG. 7). As for the experimental part: Angiogenesis is considered to be indicated by the growth of blood vessels from subcutaneous tissue into a solid piece of Matrigel™. Specific pathogen-free, female Crl:CD-1®-nuBR nude mice were obtained from Charles River Laboratories (Lasalle, QC). All of the mice used were 5-10 weeks of age. Prior to injection, heparin was incubated with or without bFGF (250 ng/mL) and VEGF165 (200 ng/mL) for 5 min, then 1 mL of MEM was added and the mixture diluted into phenol red-free Matrigel™ on ice for a final concentration of 12.4 μg/mL heparin. Then, specific pathogen-free, female Crl:CD-1®-nuBR nude mice were subcutaneously injected under anesthesia in the right flank with 0.5 mL of Matrigel™ alone or with Matrigel™ containing bFGF and VEGF. After 7 days, mice were sacrificed and Matrigel™ implants were harvested, washed with PBS and photographed. The remaining implants were immediately frozen and lyophilized overnight in order to evaluate the hemoglobin (Hb) concentrations. Testing of anti-angiogenic substances was initiated at the time of Matrigel™ implantation. Samples were then crushed and resuspended in 0.1% Triton™ X-100. Samples were mixed frequently for 1 h and centrifuged at 12,000×g for 15 min to remove particles. The concentration of hemoglobin (Hb) in the supernatant was then determined directly by measuring the absorbance at 405 nm and compared with a standard curve of purified Hb Hemoglobin content was expressed in μg Hb/mg of dried sample.

The test system of data set [4] is HMEC-1 endothelial cells. As to the kind of experiment: In vitro cell migration, HMEC-1 (Transwell / modified Boyden chambers). It is filed as cell-based. To be noted: various concentrations, dose-dependent manner (FIG. 2C). The procedure:
(§2) HMEC-1 and NCI-H460 cell migration was performed using Transwell filters (8 μm pore size) pre-coated with 0.15% gelatin for 2 hours at 37° C. or overnight at 4° C. The Transwell filters were washed once with PBS and assembled in 24-well plates. To study the effect of sMTf-derived peptides on cell migration, the lower chambers were filled with 300 μL of serum-free cell culture medium with or without various concentrations of peptides (2×). […] Approximately 50 000 cells (HMEC-1) and 100 000 cells (NCI-H460) were resuspended in 100 μL of serum free medium and added into the upper chamber of each Transwell. Then, 400 μL of serum free medium were added into the lower chamber with or without various concentrations of peptides (2×). After 1 hour incubation, 300 μL of cell culture medium containing 20% serum were added in the lower chamber to stimulate cell migration (final peptide concentration 1×). The plates were then placed at 37° C. in 5% CO2195% air for 4 hours (HMEC-1) or 18 hours (NCI-H460). Cells that had migrated to the lower surface of the filters were fixed for 30 minutes with 10% formalin, stained 30 minutes with 0.1% crystal violet/20% MeOH, and washed twice with PBS. […] The cell migration was quantified in four fields per filters at 50× magnification using microscopy computer-assisted imaging (Northern Eclipse™ software). Results are expressed as a percentage of cell migration of treated cells compared to untreated cells.

The subject of data set [5] is NCI-H460 pulmonary carcinoma cells. As to the kind of experiment: In vitro cell migration, NCI-H460 (Transwell / modified Boyden chambers). It is filed as cell-based, human. To be noted: various concentrations, dose-dependent manner (FIG. 2D). The procedure:
as §2

For data set [6], the target named is plasminogen activation by urokinase-type plasminogen activator (uPA) (Homo sapiens, UniProt P00749). The data set can be described thus: In vitro plasminogen activation by uPA (colorimetric VLK-pNA assay). Format: biochemical. To be noted: various concentrations of peptide (FIG. 1B). The procedure:
The in vitro enzymatic activity of uPA was measured using a colorimetric assay. To study the effect of sMTf-derived peptides on plasminogen activation by uPA, the reaction was performed in plasminogen activation buffer (50 mM Tris/HCl (pH 7.5), 150 mM NaCl and 50 mM CaCl2) in a final volume of 200 μL. This incubation medium also contained 30 nM plasminogen and 15 μg of the chromogenic plasmin substrate D-Val-Leu-Lys p-nitroanilide (VLK-pNA). The reaction was started by the addition of 1 ng of uPA. In this assay, the cleavage of VLK-pNA results in a p-nitroaniline molecule that absorbs at 405 nm. The reaction product was monitored at 37° C. during 3 hours every 2 minutes using a Microplate Thermomax™ Autoreader. The velocity of the VLK-pNA hydrolysis reaction was calculated and results are expressed in mAU/min.

In data set [7] the test system is HMEC-1 endothelial cells. To be noted: up to 50 μM, 24 hours incubation (FIG. 6). The procedure: (§3) sMTf-derived peptides cellular toxicity on HMEC-1 and NCI-H460 were performed using [methyl-^3H]-thymidine incorporation assay. […] Approximately 5000 cells (HMEC-1 and NCI-H460) were resuspended with 200 μL of fresh culture medium, seeded into white 96-wells plate and placed at 37° C. in 5% CO2/95% air. After 24 hours, the medium was removed and 200 μL of serum-free cell culture medium was added to synchronize the cells. After another 24 hours, the medium was removed and 200 μL of fresh complete medium with or without various peptide concentrations were added. After 24 hours incubation with the peptides, the medium was remove and 200 μL (0.5 μCi) of [methyl-^3H]-thymidine was added and placed at 37° C. in 5% CO2/95% air for 4 hours. Then, the wells were gently washed twice with PBS at 37° C., incubated with 200 μL of EtOH:Acetic acid (3:1) for 10 minutes and dried under the hood. 50 μL of Microscint™-O was added per well, the plate was sealed, agitated for 3 minutes, and read on the microplate scintillation and luminescence counter (TopCount NXT, Packard). Results are expressed as a percentage of cell viability of treated cells compared to untreated cells.

The subject of data set [8] is NCI-H460 pulmonary carcinoma cells. To be noted: up to 50 μM, 24 hours incubation (FIG. 6). As for the experimental part: as §3

For the substance “Ac-F-R-C-L-V-E-N-A-G-D-V-A-F-V-R-H-K-K-K-NH2 (Ac-FRCLVENAGDVAFVRHKKK-NH2) [SEQ ID NO: 5]”, in data set [1], the “inhibition of NCI-460 tumor growth” value is 45% and the NCI-460 tumor growth result is “inhibit NCI-460 tumor growth”. Besides, in data set [2], the “inhibition of U87 tumor growth” value is 39% and the U87 tumor growth result is “inhibit U87 tumor growth”. Further, the “in vivo neovascularisation of Matrigel implant (hemoglobin content)” value (shortened to “in vivo neovascularisation”) in data set [3] was “inhibit in vivo neovascularisation”.
“Ac-F-R-C-L-V-E-N-A-G-D-V-P-F-V-R-H-NH2 (Ac-FRCLVENAGDVPFVRH-NH2) [SEQ ID NO: 7]”: in data set [3], the “in vivo neovascularisation” value is “inhibit in vivo neovascularisation”.
In the case of “Ac-F-R-C-L-V-E-N-R-G-D-V-P-F-V-K-R-E-R-F-NH2 (Ac-FRCLVENRGDVPFVKRERF-NH2) [SEQ ID NO: 13]”, the “migration of HMEC-1 cells” value with HMEC-1 endothelial cells [4] is “inhibit the migration”. In data set [5], the “migration of NCI-H460 cells” value was “inhibit the migration”. The “in vivo neovascularisation” value in data set [3] is “inhibit in vivo neovascularisation”.
As for “Ac-F-R-C-L-V-E-N-R-G-D-V-P-F-V-T-R-I-R-NH2 (Ac-FRCLVENRGDVPFVTRIR-NH2) [SEQ ID NO: 15]”, the “migration of HMEC-1 cells” value in the data set with HMEC-1 endothelial cells [4] was “inhibit the migration”. Besides, the “migration of NCI-H460 cells” value in data set [5] is listed as “inhibit the migration”. The “inhibition of NCI-460 tumor growth” value in data set [1] is 37%. In data set [2], the “inhibition of U87 tumor growth” value is 74% and the U87 tumor growth entry is on record as “inhibit U87 tumor growth”. Further, the “in vivo neovascularisation” value in data set [3] is “inhibit in vivo neovascularisation”.
“Ac-FRCLVENAGDVAFVRH-NH2 [SEQ ID NO: 2, Ac-F-R-C-L-V-E-N-A-G-D-V-A-F-V-R-H-NH2]”: the “plasminogen cleavage by uPA” value in data set [6] is on record as “stimulates plasminogen cleavage by uPA in a dose-dependent manner”. Moreover, in the data set on HMEC-1 endothelial cells [4], the “migration of HMEC-1 cells” value is on record as “inhibit the migration”. The “migration of NCI-H460 cells” value in data set [5] was “inhibit the migration”. Moreover, in the data set on HMEC-1 endothelial cells [7], the “cellular toxicity on HMEC-1 cells” value is recorded as “do not demonstrate any cellular toxicity”. Further, the “cellular toxicity on NCI-H460 cells” value in data set [8] is listed as “do not demonstrate any cellular toxicity”.
With “Ac-YSGAFRMLAEGAGDVAFVKHKKK-NH2 (Ac-YSGAFRMLAEGAGDVAFVKHKKK-NH2) [SEQ ID NO: 9]”, in data set [1], the “inhibition of NCI-460 tumor growth” value amounted to 42% and the NCI-460 tumor growth result is “inhibit NCI-460 tumor growth”. In addition, in data set [3], the “in vivo neovascularisation” value is reported as “inhibit in vivo neovascularisation”.
As for “SEQ ID NO: 10: sMTf-derived peptide; sequence shown only as a drawing in Table II (FRCLVENAGDVAFVRHKKKKKKKHRVFAVDGANEVLCRF)”, in data set [1], the “inhibition of NCI-460 tumor growth” value is recorded as 69% and the NCI-460 tumor growth result is “inhibit NCI-460 tumor growth”.

(Values after patent US9334314B2, “Peptide compounds derived from melanotransferrin and uses thereof” (Theratechnologies Inc., priority 2011, dated 2016).)
